Measured values from publication PMC9570594, “Development of Novel Pyridine-Thiazole Hybrid Molecules as Potential Anticancer Agents” (Molecules, 2022).
Where two headings read alike, the source gives them in different places.

Assays:
[1] = test system: Leukemia cell lines (MG_MID); assay: NCI five-dose SRB assay; format: cell-based; conditions: Homo sapiens, 48 h
[2] = test system: LOX IMVI (Melanoma); assay: NCI one-dose SRB assay; conditions: 10 μM, 48 h
Experimental: Primary anticancer assays (Table 3) on a panel of 60 cancer cell lines at one dose-assay (10^−5 M) were performed according to the NCI protocol, as described elsewhere [31, 32, 33, 34, 35].
(§1) A primary anticancer assay was performed on a panel of approximately sixty human tumor cell lines derived from nine neoplastic diseases, in accordance with the protocol of the Drug Evaluation Branch, National Cancer Institute, Bethesda [31, 32, 33, 34, 35]. Tested compounds were added to the culture at a single concentration (10^−5 M) and the cultures were incubated for 48 h. End point determinations were made with a protein binding dye, Sulphorhodamine B (SRB). […] The percentage growth was evaluated spectrophotometrically versus controls not treated with test agents.

[3] = test system: HS 578T (Breast Cancer); assay: NCI five-dose SRB assay; format: cell-based; conditions: Homo sapiens, 48 h
[4] = test system: BT-549 (Breast Cancer); assay: NCI five-dose SRB assay; format: cell-based; conditions: Homo sapiens, 48 h
[5] = test system: Prostate Cancer cell lines (MG_MID); assay: NCI five-dose SRB assay; format: cell-based; conditions: Homo sapiens, 48 h
[6] = test system: full panel of human tumor cell lines (MG_MID); assay: NCI five-dose SRB assay, full panel; format: cell-based
Experimental: Using absorbance measurements [time zero (Tz), control growth in the absence of drug (C), and test growth in the presence of drug (Ti)], the percentage growth was calculated for each drug concentration. Percentage growth inhibition was calculated as:
Dose response parameters (GI50, TGI, LC50) were calculated for each compound. […] The drug concentration resulting in total growth inhibition (TGI) was calculated from Ti = Tz. […] Values were calculated for each of these parameters if the level of activity was reached; however, if the effect was not reached or was excessive, the value for that parameter was expressed as more or less than the maximum or minimum concentration tested.

[7] = test system: OVCAR-4 (Ovarian Cancer); assay: NCI five-dose SRB assay; format: cell-based; conditions: Homo sapiens, 48 h
[8] = test system: UACC-62 (Melanoma); assay: NCI five-dose SRB assay; format: cell-based; conditions: Homo sapiens, 48 h
[9] = test system: SNB-75 (CNS Cancer); assay: NCI five-dose SRB assay; format: cell-based; conditions: Homo sapiens, 48 h
[10] = test system: MCF-7 cells; assay: Chemical synthetic lethality: MTT after preincubation with MGMT inhibitor Lomeguatrib; format: cell-based, human; conditions: for IC50: Homo sapiens, MCF7, 72 h MTT
[11] = test system: SR (Leukemia); assay: NCI five-dose SRB assay; format: cell-based; conditions: Homo sapiens, 48 h
[12] = test system: human epidermal keratinocytes of HaCaT line; assay: MTT assay of cell viability; conditions: 72 h
[13] = test system: HCT-15 (Colon Cancer); assay: NCI one-dose SRB assay; conditions: 10 μM, 48 h
Experimental: Tested compounds were added to the culture at a single concentration (10^−5 M) and the cultures were incubated for 48 h. End point determinations were made with a protein binding dye, Sulphorhodamine B (SRB). […] The percentage growth was evaluated spectrophotometrically versus controls not treated with test agents.

[14] = test system: HOP-62 (Non-Small Cell Lung Cancer); assay: NCI five-dose SRB assay; format: cell-based; conditions: Homo sapiens, 48 h
[15] = test system: Melanoma cell lines (MG_MID); assay: NCI five-dose SRB assay; format: cell-based; conditions: Homo sapiens, 48 h
[16] = test system: KM12 (Colon Cancer); assay: NCI one-dose SRB assay; conditions: 10 μM, 48 h
Experimental: as §1

[17] = test system: MCF-7 (breast); assay: MTT assay of cell viability; conditions: Homo sapiens, MCF7, 72 h, MCF-7; 72 h of incubation, M ± SD
[18] = test system: M14 (Melanoma); assay: NCI five-dose SRB assay; format: cell-based; conditions: Homo sapiens, 48 h
[19] = test system: HCC-2998 (Colon Cancer); assay: NCI five-dose SRB assay; format: cell-based; conditions: Homo sapiens, 48 h
[20] = test system: SF-295 (CNS Cancer); assay: NCI five-dose SRB assay; format: cell-based; conditions: Homo sapiens, 48 h
[21] = test system: MCF-7 (Breast Cancer); assay: NCI five-dose SRB assay; format: cell-based; conditions: Homo sapiens, MCF7, 48 h
[22] = test system: CAKI-1 (Renal Cancer); assay: NCI five-dose SRB assay; format: cell-based; conditions: Homo sapiens, 48 h
[23] = test system: NCI-H460 (Non-Small Cell Lung Cancer); assay: NCI five-dose SRB assay; format: cell-based; conditions: Homo sapiens, 48 h
[24] = test system: HCT-116 (colon); assay: MTT assay of cell viability; conditions: Homo sapiens, HCT-116, 72 h, HCT-116; 72 h of incubation, M ± SD
[25] = test system: OVCAR-5 (Ovarian Cancer); assay: NCI five-dose SRB assay; format: cell-based; conditions: Homo sapiens, 48 h
[26] = test system: RXF 393 (Renal Cancer); assay: NCI five-dose SRB assay; format: cell-based; conditions: Homo sapiens, 48 h
[27] = test system: MCF-7 cells; assay: PARP-1 inhibition in vitro: MTT after Fluzoparib pretreatment; format: cell-based, human; conditions: Homo sapiens, MCF7; MCF-7, compound alone (no preincubation), 72 h MTT; read-out: IC50
Experimental: Taking into account the above data, PARP1 inhibition in vitro was investigated using pretreatment of the MCF-7 cells with the Fluzoparib, a potent PARP1 inhibitor in the non-toxic concentrations of 5, 10, and 15 µM. It had no significant growth inhibitory effect in such doses, and a reduction of cell viability by only 10–12% was observed compared to control (non-treated) cells. […] The preincubation step was used to bind PARP1 molecules, which were the potential targets of the studied compounds and to test if it would affect the activity of 3 and 4. […] The preincubation of cells with the Fluzoparib decreased their sensitivity to the compound 3 treatment in a less pronounced manner, compared with the effect of the compound 4. […] Changes in structure of the started compound 3 may cause an enhancement of the ability of molecule 4 to inhibit the activity of PARP1.
To determine PARP inactivation, the MCF-7 cells were pretreated for 2 h in the non-toxic concentrations of 5, 10, 15 µM of the Fluzoparib (Med Chem Express, Monmouth Junction, NJ, USA), a potent PARP1 inhibitor used in the chemotherapy. Then, the medium was removed and increasing doses of the compounds 3 and 4 were added and cells were incubated for the next 72 h. The IC50 values of compounds were determined by the MTT assay, as described.

[28] = test system: NCI-H226 (Non-Small Cell Lung Cancer); assay: NCI five-dose SRB assay; format: cell-based; conditions: Homo sapiens, 48 h
[29] = test system: panel of cancer cell lines; assay: MTT assay, summary over the tumor cell lines; conditions: Homo sapiens, 72 h, read-out: IC50 toward tumor cells (depending on tumor cell line)
[30] = test system: HCT-116 (Colon Cancer); assay: NCI five-dose SRB assay; format: cell-based; conditions: Homo sapiens, 48 h
[31] = test system: U251 (CNS Cancer); assay: NCI one-dose SRB assay; conditions: 10 μM, 48 h
Experimental: as §1

CCOC(=O)c1ccc(NC(=O)CSC(CC(=O)c2sc(Nc3ccccn3)nc2C)c2ccccc2F)cc1 (stereo not shown) [Compound 4, Ethyl 4-[[2-[1-(2-Fluorophenyl)-3-[4-methyl-2-(2-pyridylamino)thiazol-5-yl]-3-oxopropyl]sulfanylacetyl]amino]benzoate]
GI50 [1]: 22.5 µM | Growth % [2]: −76.78% | GI50 [3]: 14.9 µM | GI50 [4]: 14.7 µM | GI50 [5]: 45.5 µM | GI50 ([6]; Homo sapiens, RPMI-8226, NCI-H226, SNB-75, SF 539, M14, MDA-MB-435, UO-31, RXF 393, MDA-MB-468, read-out: active concentration range (GI50) towards most sensitive lines): 2.52 to 8.29 µM | GI50 ([6]; Homo sapiens, full panel MG_MID (average GI50), 48 h, read-out: GI50): 31.7 µM | LC50 (concentration giving 50% net tumour cell kill) ([6]; Homo sapiens, full panel, mainly): > 100 µM | TGI ([6]; full panel, mainly): > 100 µM | GI50 [7]: 66.1 µM | GI50 [8]: 16.1 µM | GI50 [9]: 3.58 µM | IC50 ([10]; MCF-7, 3 h preincubation with Lomeguatrib, read-out: IC50 with the MGMT inhibitor): 0.72 µM | IC50 ([10]; MCF-7, compound alone, read-out: IC50): 2.28 µM | enhancement of sensitivity by Lomeguatrib preincubation ([10]; MCF-7): 3 times | combination effect with the MGMT inhibitor ([10]; MCF-7, compared with individual treatments): synergistic activity | GI50 [11]: 24.1 µM | IC50 [12]: > 50 µM | Growth % [13]: −42.04% | GI50 [14]: 37.5 µM | GI50 [15]: 25.3 µM | Growth % [16]: −59.82% | IC50 [17]: 2.79 ± 1.31 µM | GI50 [18]: 19.4 µM | GI50 [19]: 23.1 µM | GI50 [20]: 32.2 µM | GI50 [21]: 15.4 µM | GI50 [22]: 11.5 µM | GI50 [23]: 31.2 µM | IC50 [24]: 6.11 ± 0.24 µM | GI50 [25]: 74.4 µM | GI50 [26]: 2.59 µM | IC50 [27]: 3.53 µM | GI50 [28]: 2.52 µM | IC50 [29]: 0.57 to 7.8 µM | GI50 [30]: 23 µM | Growth % [31]: −70.41%
